Where two headings read alike, the source gives them in different places.
Experiments:
VIM-1 = VIM-1 (Pseudomonas aeruginosa (strain ATCC 15692 / DSM 22644 / CIP 104116 / JCM 14847 / LMG 12228 / 1C / PRS 101 / PAO1), UniProt A0A0F7KYQ8); experiment: biochemical; conditions: CCF2-FA substrate, 30 pM enzyme, 2 hours at 25° C.
Outline: (§1)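 Test compound, enzyme and the FRET cephalosporin substrate CCF2-FA are incubated together for 2 hours at 25° C. Cleavage is followed by fluorescence, and IC50 values are derived from semi-logarithmic inhibition curves fitted with a 4-parameter model.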

NDM-1 = NDM-1 (Klebsiella pneumoniae, UniProt C7C422); experiment: biochemical; format: biochemical; conditions: fluorescence assay, CCF2-FA substrate, 1 pM enzyme, 2 hours at 25° C.; read-out: NDM-1 IC50
Chain of NDM-1 (C7C422 whole entry, looked up, species assumed): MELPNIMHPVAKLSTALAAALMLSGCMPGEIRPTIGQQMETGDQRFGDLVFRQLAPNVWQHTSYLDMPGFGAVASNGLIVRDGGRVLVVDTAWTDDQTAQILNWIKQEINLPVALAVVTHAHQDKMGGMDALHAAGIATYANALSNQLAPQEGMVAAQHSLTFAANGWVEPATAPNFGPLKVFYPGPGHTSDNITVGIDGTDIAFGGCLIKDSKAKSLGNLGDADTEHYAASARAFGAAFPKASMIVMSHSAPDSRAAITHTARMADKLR
Outline: as §1

IMP-1 = IMP-1 (Serratia marcescens, UniProt P52699); experiment: biochemical; format: biochemical; conditions: fluorescence assay, CCF2-FA substrate, 2 pM enzyme, 2 hours at 25° C.; read-out: IMP-1 IC50
Chain of IMP-1 (P52699 whole entry, looked up, species assumed): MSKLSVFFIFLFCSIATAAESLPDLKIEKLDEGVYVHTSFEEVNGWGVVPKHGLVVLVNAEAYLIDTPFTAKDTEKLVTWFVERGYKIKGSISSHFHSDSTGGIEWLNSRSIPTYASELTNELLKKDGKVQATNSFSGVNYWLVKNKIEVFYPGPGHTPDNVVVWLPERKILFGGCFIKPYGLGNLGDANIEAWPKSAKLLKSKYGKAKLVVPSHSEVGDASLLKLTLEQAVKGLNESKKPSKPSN
Outline: as §1

[1] = system: Pseudomonas aeruginosa MB9798 vs MB9799
Outline: (§2)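 P. aeruginosa PAO1-derived IMP-1 strains, efflux+ MB9798 and efflux− MB9799, tested by standard microbroth MIC with imipenem and/or ceftazidime fixed, usually at CLSI breakpoint, plus fixed class A/C β-lactamase inhibitor against AmpC. Inhibitor titrated; concentration restoring susceptibility recorded; MB9798/MB9799 fold difference indicates efflux.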

[2] = system: Serratia marcescens expressing IMP-1 (CL5741); format: cell-based; conditions: for Serratia marcescens expressing IMP-1 (CL5741) MITC95: with imipenem 1 μg/ml, 95% inhibition of bacterial growth; for Serratia marcescens MITC95: IMP-1 strain CL5741, with imipenem 1 μg/ml, 95% inhibition of growth
Outline: (§3)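 Imipenem 1 μg/ml + inhibitor; MBL-expressing clinical strains in 1.1×CAMHB, inoculum from saline suspension diluted 1:100; 35° C, 22–24 h; absorbance read-out.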

[3] = system: Klebsiella pneumoniae expressing VIM-1 (IHMA599644); format: cell-based; conditions: for Klebsiella pneumoniae expressing VIM-1 (IHMA599644) MITC95: with imipenem 1 μg/ml, 95% inhibition of bacterial growth; for Klebsiella pneumoniae MITC95: VIM-1 strain IHMA599644, with imipenem 1 μg/ml, 95% inhibition of growth
Outline: as §3

[4] = system: Escherichia coli expressing NDM-1 (CLB30005, CLB30016); format: cell-based; conditions: with imipenem 1 μg/ml; for Escherichia coli expressing NDM-1 (CLB30016) MITC95: 95% inhibition of bacterial growth; for Escherichia coli MITC95: NDM-1 strain, 95% inhibition of growth
Outline: as §3

[5] = system: Pseudomonas aeruginosa efflux+ (MB9798), IMP-1; format: cell-based; parameters: Concentration of metallo-β-lactamase inhibitor which restores susceptibility of efflux + (MB9798) strain to imipenem: unit not given here; conditions: C, D serine β-lactamase inhibitor closely related to relebactam; for P. aeruginosa expressing IMP-1, efflux + (MB9798) MITC95: concentration restoring susceptibility to imipenem at 2 μg/mL in the presence of a class A; for Concentration of metallo-β-lactamase inhibitor which restores susceptibility of efflux + (MB9798) strain to imipenem: imipenem at 2 μg/mL, in the presence of a class A
Outline: as §2

[6] = system: Pseudomonas aeruginosa efflux− (MB9799), IMP-1; format: cell-based; conditions: C, D serine β-lactamase inhibitor closely related to relebactam; for P. aeruginosa expressing IMP-1, efflux − (MB9799) MITC95: concentration restoring susceptibility to imipenem at 2 μg/mL in the presence of a class A; for Concentration of metallo-β-lactamase inhibitor which restores susceptibility of efflux − (MB9799) strain to imipenem: imipenem at 2 μg/mL, in the presence of a class A
Outline: as §2

[7] = ratio MITC95 PA_9798/MITC95 PA_9799
[8] = fold difference between efflux+ (MB9798) and efflux− (MB9799) strains, imipenem at 2 μg/mL
[9] = fluorescence assay, read-out: VIM-1 IC50

Row | SMILES | IC50 (VIM-1; VIM-1 IC50, fluorescence assay) [nM] | IC50 (NDM-1) [nM] | IC50 (IMP-1) [nM] | Efflux ratio [1, 7] | Serratia marcescens expressing IMP-1 (CL5741) MITC95 [2] [µM] | Klebsiella pneumoniae expressing VIM-1 (IHMA599644) MITC95 [3] [µM] | Escherichia coli expressing NDM-1 (CLB30016) MITC95 [4] [µM] | P. aeruginosa expressing IMP-1, efflux + (MB9798) MITC95 [5] [µM] | P. aeruginosa expressing IMP-1, efflux − (MB9799) MITC95 [6] [µM] | Efflux ratio [1, 8] | Serratia marcescens MITC95 [2] [µM] | Klebsiella pneumoniae MITC95 [3] [µM] | Escherichia coli MITC95 [4] [µM] | Concentration of metallo-β-lactamase inhibitor which restores susceptibility of efflux + (MB9798) strain to imipenem [5] | Concentration of metallo-β-lactamase inhibitor which restores susceptibility of efflux − (MB9799) strain to imipenem [6] | IC50 (VIM-1; [9]) [nM]
1 | Nc1nc2c(-c3ccc(S(=O)(=O)NCC4(CO)CC4)c(S(N)(=O)=O)c3-c3nnn[nH]3)cccc2s1 [Example 37, 4-(2-amino-1,3-benzothiazol-4-yl)-N1-{[1-(hydroxymethyl)cyclopropyl]methyl}-3-(1H-tetrazol-5-yl)benzene-1,2-disulfonamide] | 0.198 | 0.00769 | 0.287 | 1.00 | 3.125 | 12.5 | 12.5 | 6.25 | 6.25 |  |  |  |  |  |  | 
2 | CN(CCN)S(=O)(=O)c1ccc(-c2cccc3[nH]c(N)nc23)c(-c2nn[nH]n2)c1S(N)(=O)=O [Example 449, 4-(2-amino-1H-benzo[d]imidazol-4-yl)-N^1-(2-aminoethyl)-N^1-methyl-3-(2H-tetrazol-5-yl)benzene-1,2-disulfonamide] | 27.8 | 7.73 | 11.8 |  |  |  |  |  |  | 4.00 | 1.563 | 12.5 | 0.7813 | 6.25 | 1.563 | 
3 | NCCNc1cc(-c2ccc(S(=O)(=O)NCCO)c(S(N)(=O)=O)c2-c2nn[nH]n2)ccn1 [Example 457, 4-(2-((2-aminoethyl)amino)pyridin-4-yl)-N1-(2-hydroxyethyl)-3-(2H-tetrazol-5-yl)benzene-1,2-disulfonamide] |  | 3.68 | 5.29 |  |  |  |  |  |  | 31.99 | 3.125 | 6.25 | 1.563 | 50 | 1.563 | 0.49
4 | NC[C@H](O)CNS(=O)(=O)c1ccc(-c2cccc3[nH]cnc23)c(-c2nn[nH]n2)c1S(N)(=O)=O [Example 307, (S)-4-(1H-benzo[d]imidazol-4-yl)-N1-(3-amino-2-hydroxypropyl)-3-(2H-tetrazol-5-yl)-benzene-1,2-disulfonamide] |  | 0.0339 | 0.258 | 1.00 |  |  |  | 0.7813 | 0.7813 |  | 1.563 | 1.563 | 1.563 |  |  | 0.113
5 | Nc1nc2c(-c3ccc(S(=O)(=O)N4CCNCC4)c(S(N)(=O)=O)c3-c3nn[nH]n3)cccc2o1 [Example 159, 3-(2-aminobenzo[d]oxazol-4-yl)-6-(piperazin-1-ylsulfonyl)-2-(2H-tetrazol-5-yl)benzenesulfonamide] |  | 0.195 | 1.29 | 2.00 | 1.563 | 3.125 | 1.563 | 3.125 | 1.563 |  |  |  |  |  |  | 0.51
6 | Nc1nc2c(-c3ccc(S(=O)(=O)NC4CCC5OC4CC5N)c(S(N)(=O)=O)c3-c3nnn[nH]3)cccc2s1.O=C(O)C(F)(F)F (stereo not drawn) [Example 95, 2-(4-(2-aminobenzo[d]thiazol-4-yl)-2-sulfamoyl-3-(1H-tetrazol-5-yl)phenylsulfonamido)-8-oxabicyclo[3.2.1]octan-6-aminium 2,2,2-trifluoroacetate] |  | 0.027 | 0.193 | 1.00 | 3.125 | 3.125 | 1.563 | 1.563 | 1.563 |  |  |  |  |  |  | 0.173
7 | Cn1c(N)nc2c(-c3ccc(S(=O)(=O)NCCCN)c(S(N)(=O)=O)c3-c3nn[nH]n3)cccc21 [Example 183, 4-(2-amino-1-methyl-1H-benzo[d]imidazol-4-yl)-N^1-(3-aminopropyl)-3-(2H-tetrazol-5-yl)benzene-1,2-disulfonamide] |  | 0.0539 | 0.338 | 1.00 | 0.7813 | 0.7813 | 0.3906 | 0.7813 | 0.7813 |  |  |  |  |  |  | 0.11
8 | NS(=O)(=O)c1ccc(-c2ccc(S(=O)(=O)N[C@@H]3CCNC3)c(S(N)(=O)=O)c2-c2nnn[nH]2)cc1 [Example 135, (R)-N4-(pyrrolidin-3-yl)-2-(1H-tetrazol-5-yl)-[1,1′-biphenyl]-3,4,4′-trisulfonamide] |  | 0.136 | 0.229 | 1.00 | 1.563 | 1.563 | 1.563 | 0.7813 | 0.7813 |  |  |  |  |  |  | 0.107
9 | NCCNS(=O)(=O)c1ccc(-c2cccc(-c3c[nH]c(N)n3)c2)c(-c2nn[nH]n2)c1S(N)(=O)=O [Example 353, 3′-(2-amino-1H-imidazol-4-yl)-N4-(2-aminoethyl)-2-(2H-tetrazol-5-yl)-[1,1′-biphenyl]-3,4-disulfonamide] |  | 0.259 | 1.15 | 2.00 |  |  |  | 1.563 | 0.7813 |  | 0.7813 | 1.563 | 0.3906 |  |  | 0.571
10 | Nc1nc2c(-c3ccc(S(=O)(=O)N[C@@H]4CCCNC4)c(S(N)(=O)=O)c3-c3nnn[nH]3)cccc2[nH]1 [Example 178, (R)-4-(2-amino-1H-benzo[d]imidazol-4-yl)-N^1-(piperidin-3-yl)-3-(1H-tetrazol-5-yl)benzene-1,2-disulfonamide] |  | 0.064 | 0.87 | 1.00 | 1.563 | 3.125 | 1.563 | 1.563 | 1.563 |  |  |  |  |  |  | 0.266
